Source: PubChem BioAssay (NCI)
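GI50 is the concentration that inhibits growth by half. TGI is the concentration that stops growth completely.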

Tests used:
Assay in all cases: NCI-60 cell line screen, 384-well format
T-47D breast = tested on: T-47D breast
SK-MEL-28 melanoma = tested on: SK-MEL-28 melanoma
MOLT-4 leukemia = tested on: MOLT-4 leukemia
UACC-257 melanoma = tested on: UACC-257 melanoma
OVCAR-8 ovarian = tested on: OVCAR-8 ovarian
PC-3 prostate = tested on: PC-3 prostate
A549 NSCLC = tested on: A549 NSCLC
HL-60(TB) leukemia = tested on: HL-60(TB) leukemia
TK-10 renal = tested on: TK-10 renal
A498 renal = tested on: A498 renal
HOP-62 NSCLC = tested on: HOP-62 NSCLC
SK-MEL-5 melanoma = tested on: SK-MEL-5 melanoma
BT-549 breast = tested on: BT-549 breast
MALME-3M melanoma = tested on: MALME-3M melanoma
NCI-H23 lung = tested on: NCI-H23 lung
786-0 renal = tested on: 786-0 renal
SF-268 CNS = tested on: SF-268 CNS
CAKI-1 renal = tested on: CAKI-1 renal
OVCAR-5 ovarian = tested on: OVCAR-5 ovarian
K-562 leukemia = tested on: K-562 leukemia
CCRF-CEM leukemia = tested on: CCRF-CEM leukemia
RXF 393 renal = tested on: RXF 393 renal
UACC-62 melanoma = tested on: UACC-62 melanoma
SN12C renal = tested on: SN12C renal
SK-MEL-2 melanoma = tested on: SK-MEL-2 melanoma
NCI-H226 lung = tested on: NCI-H226 lung
SW-620 colon = tested on: SW-620 colon
NCI-H522 lung = tested on: NCI-H522 lung

Cc1c2c(nn1C)CSCc1cc(n(C)n1)CSc1cc(c3ccccc3c1)OCCCc1c(C(=O)O)n(C)c3c-2c(Cl)ccc13
GI50 (T-47D breast): 2.3 µM
TGI (T-47D breast): 8.32 µM
GI50 (SK-MEL-28 melanoma): 2.51 µM
TGI (SK-MEL-28 melanoma): 7.44 µM
GI50 (MOLT-4 leukemia): 0.0856 µM
TGI (MOLT-4 leukemia): 0.236 µM
GI50 (UACC-257 melanoma): 2.59 µM
TGI (UACC-257 melanoma): 9.27 µM
GI50 (OVCAR-8 ovarian): 4.01 µM
TGI (OVCAR-8 ovarian): 15.3 µM
GI50 (PC-3 prostate): 3.04 µM
TGI (PC-3 prostate): 9.02 µM
GI50 (A549 NSCLC): 3.94 µM
TGI (A549 NSCLC): 15.1 µM
GI50 (HL-60(TB) leukemia): 0.0122 µM
TGI (HL-60(TB) leukemia): 0.0248 µM
GI50 (TK-10 renal): 3.3 µM
TGI (TK-10 renal): 12.7 µM
GI50 (A498 renal): 3.69 µM
TGI (A498 renal): 14.1 µM
GI50 (HOP-62 NSCLC): 2.41 µM
TGI (HOP-62 NSCLC): 10.6 µM
GI50 (SK-MEL-5 melanoma): 1.23 µM
TGI (SK-MEL-5 melanoma): 2.69 µM
GI50 (BT-549 breast): 1.62 µM
TGI (BT-549 breast): 4.58 µM
GI50 (MALME-3M melanoma): 1.76 µM
TGI (MALME-3M melanoma): 4.45 µM
GI50 (NCI-H23 lung): 0.185 µM
TGI (NCI-H23 lung): 0.861 µM
GI50 ([…]-0 renal): 3.06 µM
TGI (786-0 renal): 11.5 µM
GI50 (SF-268 CNS): 3.04 µM
TGI (SF-268 CNS): 11.9 µM
GI50 (CAKI-1 renal): 5.74 µM
TGI (CAKI-1 renal): 18.2 µM
GI50 (OVCAR-5 ovarian): 3.99 µM
TGI (OVCAR-5 ovarian): 14 µM
GI50 (K-562 leukemia): 3.78 µM
TGI (K-562 leukemia): 13.1 µM
GI50 (CCRF-CEM leukemia): 0.631 µM
TGI (CCRF-CEM leukemia): 2.33 µM
GI50 (RXF 393 renal): 0.375 µM
TGI (RXF 393 renal): 2.13 µM
GI50 (UACC-62 melanoma): 0.134 µM
TGI (UACC-62 melanoma): 0.349 µM
GI50 (SN12C renal): 3.4 µM
TGI (SN12C renal): 13.4 µM
GI50 (SK-MEL-2 melanoma): 0.0454 µM
TGI (SK-MEL-2 melanoma): 0.189 µM
GI50 (NCI-H226 lung): 2.59 µM
TGI (NCI-H226 lung): 7.4 µM
GI50 (SW-620 colon): 3.96 µM
TGI (SW-620 colon): 13.6 µM
GI50 (NCI-H522 lung): 0.0686 µM
TGI (NCI-H522 lung): 0.581 µM
